Source: paper PMC12111648, “New Dimethoxyaryl-Sesquiterpene Derivatives with Cytotoxic Activity Against MCF-7 Breast Cancer Cells: From Synthesis to Topoisomerase I/II Inhibition and Cell Death Mechanism Studies” (International Journal of Molecular Sciences, 2025)

How the values were obtained:
Type in all cases: cell-based, human
MCF-7 cells [1] = assay: MTT cytotoxicity assay on MCF-7 cells; details: for IC50: MTT, 48 h incubation, IC50 ± SD, three experiments in triplicate; for Selectivity Index (SI): SI = IC50 on MCF-10 cells/IC50 on MCF-7 cells
Procedure: (§1) In this study, we wondered whether semi-synthetic compounds have potential antitumoral properties against BC. Therefore, we were interested in investigating the effect of the compounds on the MCF-7 cell line. Firstly, we studied the effect on cell viability using a colorimetric MTT assay, which was performed to quantify the cytotoxic activity; each compound was evaluated at different concentrations (500−100−20−4−0.8−0.16−0.032−0 µM). Daunorubicin was also used as a positive control for comparison with a reference drug. […] Although the MCF-10 cell line provides a useful selectivity model, it may not fully represent the varying sensitivities of different normal cell types within a multicellular organism. The SI value indicates the ratio of toxicity in mammalian host cells to that in a tumoral cell. The data obtained in response to different concentrations of compounds were used to calculate the IC50 and corresponding SI values, as shown in Table 1.
(§2) The American Type Culture Collection (Rockville, MD, USA) supplied the following experimental cell lines: MCF-7, a human breast cancer cell line, and MCF-10A, a human epithelial breast cell line (ATCC N° CRL-10317). Both cell lines were grown in DMEM-F12 medium containing 10% FCS, 100 U/mL penicillin, 100 μg/mL streptomycin, and 1 mM glutamine. The cells were seeded at a concentration of 100 μL per well at a plating density of 3 × 10^3 cells/well and incubated for 24 h at 37 °C under 5% humidified CO2 to enable attachment. The cells were then treated with varying concentrations of synthesized compounds for […] under the same conditions. The compound stock solution was prepared in DMSO, and the final concentration of DMSO was kept at 0.1%. Control cultures were treated with only 1% ethanol.
(§3) Cells from the MCF-7 and MCF-10 lines were seeded into 96-well plates at a density of 1 × 10^4 per well. After 24 h, the compounds were added at increasing concentrations (500–100–20-4–0.8–0.16–0.032–0 µM), and the cells were incubated at 37 °C in a humidified 5% CO2/95% air mixture for 48 h. Following incubation, the cells were washed twice with PBS, and 100 μL of 0.5 mg/mL MTT solution was added to each well. After 2 h of incubation, the MTT solution was removed, and the formazan crystals were dissolved in 50 μL of DMSO per well. Absorbance was then measured at 570 nm using a microplate ELISA reader. IC50 values, determined from three independent experiments conducted in triplicate, were calculated using SigmaPlot® software (version 11.0). The selectivity index (SI) of each compound in each cell line was determined by calculating the ratio of the IC50 values for MCF-10 and cancer cell lines. Compounds were considered selective if SI values were equal to or greater than 3 [46].

MCF-10 cells = assay: MTT cytotoxicity assay on non-tumoral MCF-10 cells; details: IC50 ± SD, three experiments in triplicate
Procedure: as §1, §2, §3

MCF-7 cells [2] = assay: Mitochondrial membrane potential (rhodamine 123, flow cytometry); details: MCF-7, compounds at respective IC50, 24 h
Procedure: To determine whether the toxic effects of selected sesquiterpenes (10c, 11c, 12c, 13c, and 14c) are due to the production of ROS and subsequent apoptosis, the mitochondrial membrane potential was measured. With this aim, a protocol using rhodamine 123 staining and flow cytometry was established to study the effect of the selected compounds [40]. The accumulation of rhodamine 123 in mitochondria is associated with the maintenance of the electrochemical gradient in mitochondria. Daunorubicin was used as a positive control (C+). The results are presented as the percentage of cells with increased mitochondrial membrane permeability.
Rhodamine 123 (Rho123), a positively charged dye that reacts to voltage changes and enters the mitochondria, was utilized to detect modifications in the mitochondrial membrane potential. The cells were exposed to specific compounds (IC50 values for each compound) for 24 h. Control cells that had not been treated were used as negative control, while cells treated with daunorubicin at a concentration of 1 µM served as the positive control. Following this, the cells were incubated with Rho123 (at a concentration of 1 µM) in darkness for an hour at 37 °C. Afterward, the medium was taken out, and the cells were washed with PBS. The cells were then dissociated using trypsin and collected through centrifugation for 10 min at 1500×g. The supernatant was thrown away, and the cell pellets were resuspended in PBS and analyzed using flow cytometry with the FL1 filter. The results are shown as the percentage of Rho123-stained cells.
Figure 5 The effect of the compound’s treatment on mitochondrial membrane potential. […] The data represent the means ± S.D. of at least three experiments with triplicate samples.

[3] = test system: caspases-3/7 in MCF-7 cells; assay: Caspase-Glo 3/7 assay; details: MCF-7, 50 μM, 24 h, versus control
Procedure: Since ROS levels were increased in the MCF-7 cancer cell line in response to the compounds, it is important to determine whether this effect is associated with the onset of apoptotic cell death. […] Cells were treated with the selected compounds at 50 μM for 24 h, incubated in situ with the Caspase-Glo 3/7 marker assay, and then analyzed in a luminometer.
The activity of caspase 3/7 in MCF-7 cells treated with the compounds was determined using a Caspase-Glo-3/7 Assay kit from Promega (UK). This assay is a homogenous and luminescent method that measures the activity of caspase-3 and -7, which are essential for apoptosis. MCF-7 cells (1 × 10^4 cells per well) were seeded in a 96-well plate and incubated overnight. The cells were then treated for 24 h with the compounds (50 µM) and a blank as a control. After treatment, the Caspase-Glo® 3/7 reagent was prepared according to the manufacturer’s instructions. Specifically, 100 μL of the reagent was added to 100 μL of culture medium containing the treated cells in each well, and the mixture was incubated for 1 h at room temperature in the dark. Luminescence was then measured using a luminometer (Berthold Sirius Single Tube Luminometer). The fold change in caspase activity was calculated by expressing the average luminescence of each treatment as a fold change with respect to the average luminescence of the negative control.
Figure 6 The effect of the compounds on caspases-3/7 activity in cells from the human breast cancer cell line MCF-7. Caspases-3/7 activity was determined in MCF-7 cells following treatment with the compounds (50 μM) for 24 h. The data are reported as the ratio of activity in treated cells vs. the control (1% ethanol), which were arbitrarily assigned a unitary value. * p < 0.05 versus control cells (Ctrl). The data are reported as the mean values ± S.D. of three different experiments with samples in triplicate.

MCF-7 cells [4] = assay: Intracellular ROS generation (DCFH2-DA, flow cytometry); details: MCF-7, compounds at respective IC50, 24 h, versus control
Procedure: An increase in intracellular ROS may be one of the factors that contribute to the cytotoxicity of certain compounds in cancer cell lines. In fact, ROS and mitochondrial damage are often associated with the induction of cell death. […] DCF fluorescence was then measured by flow cytometry. The difference in the percentage of DCF-positive cells between treated and control cells was used to indicate an increase in intracellular ROS, as shown in Figure 4.
Reactive oxygen species (ROS) production was measured using flow cytometry. Cells were treated with compounds (each with respective IC50 values) for 24 h, with untreated cells serving as the negative control and cells treated with 1 µM daunorubicin as the positive control. Following the treatment, intracellular ROS levels were visualized after incubation with 2′,7′-dichlorodihydro-fluorescein diacetate (DCFH2-DA) at a final concentration of 10 μM for the last 30 min of the treatment period. After incubation, the cells were washed with PBS, trypsinized, and centrifuged, and the resulting pellet was resuspended in PBS and immediately examined by flow cytometry.
Figure 4 The effect of the compound’s treatment on intracellular ROS generation. Cells were treated with compounds (respective IC50 values for each compound for 24 h), and intracellular ROS levels were determined in the human cancer cell line MCF-7 by flow cytometry using dichloro-fluorescein diacetate (DCFH2-DA). * p < 0.05 versus control cells (Ctrl). The data represent the means ± S.D. of at least three experiments with triplicate samples.

[5] = Homo sapiens, MCF10, 48 h incubation

Row | mitochondrial membrane permeability (MCF-7 cells [2]) | Compound | IC50 (MCF-7 cells [1]; Homo sapiens, MCF7) | Selectivity Index (SI) (MCF-7 cells [1]) | IC50 (MCF-10 cells; [5]) | caspases-3/7 activity [3] | intracellular ROS levels (DCF fluorescence) (MCF-7 cells [4]) | IC50 (MCF-7 cells [1]) | IC50 (MCF-10 cells; 48 h incubation)
1 |  | COc1ccc([C@@H](O)[C@H]2C(C)=CCC3C(C)(C)CCC[C@@]32C)c(OC)c1 (stereo partly drawn) [Compound 10a, (1S)-(2,4-Dimethoxyphenyl)((1S,8aS)-2,5,5,8a-tetramethyl-1,4,4a,5,6,7,8,8a-octahydronaphthalen-1-yl) methanol] | 74.2 ± 7 µM | 0.7 | 53.2 ± 10 µM |  |  |  | 
2 |  | COc1ccc(OC)c([C@@H](O)[C@H]2C(C)=CCC3C(C)(C)CCC[C@@]32C)c1 (stereo partly drawn) [Compound 10b, (1S)-(2,5-Dimethoxyphenyl)((1S,8aS)-2,5,5,8a-tetramethyl-1,4,4a,5,6,7,8,8a-octahydronaphthalen-1-yl)methanol] | 131 ± 26.6 µM | 0.1 | 10.1 ± 3 µM |  |  |  | 
3 | did not increase | COc1ccc([C@@H](O)[C@H]2C(C)=CCC3C(C)(C)CCC[C@@]32C)cc1OC (stereo partly drawn) [Compound 10c, (1S)-(3,4-Dimethoxyphenyl)((1S,8aS)-2,5,5,8a-tetramethyl-1,4,4a,5,6,7,8,8a-octahydronaphthalen-1-yl) methanol] | 25.1 ± 2.2 µM | 9.9 | 248 ± 42.3 µM | considerably enhanced | significantly increased |  | 
4 |  | COc1cc(OC)cc([C@@H](O)[C@H]2C(C)=CCC3C(C)(C)CCC[C@@]32C)c1 (stereo partly drawn) [Compound 10d, (1S)-(3,5-Dimethoxyphenyl)((1S,8aS)-2,5,5,8a-tetramethyl-1,4,4a,5,6,7,8,8a-octahydronaphthalen-1-yl)methanol] | 126 ± 11.5 µM | 0.1 | 12.3 ± 3.1 µM |  |  |  | 
5 |  | COc1ccc(C[C@H]2C(C)=CCC3C(C)(C)CCC[C@@]32C)c(OC)c1 (stereo partly drawn) [Compound 11a, (4aS,5S)-5-(2,4-Dimethoxybenzyl)-1,1,4a,6-tetramethyl-1,2,3,4,4a,5,8,8a-octahydronaphthalene] | 75.2 ± 11.3 µM | 1.0 | 76.7 ± 3 µM |  |  |  | 
6 |  | COc1ccc(OC)c(C[C@H]2C(C)=CCC3C(C)(C)CCC[C@@]32C)c1 (stereo partly drawn) [Compound 11b, (4aS,5S)-5-(2,5-Dimethoxybenzyl)-1,1,4a,6-tetramethyl-1,2,3,4,4a,5,8,8a-octahydronaphthalene] | 133 ± 14.9 µM | 0.4 | 54.4 ± 3.5 µM |  |  |  | 
7 |  | COc1ccc(C(=O)[C@H]2C(C)=CCC3C(C)(C)CCC[C@@]32C)c(OC)c1 (stereo partly drawn) [Compound 12a, (2,4-Dimethoxyphenyl)((1S,8aS)-2,5,5,8a-tetramethyl-1,4,4a,5,6,7,8,8a-octahydronaphthalen-1-yl)methanone] | 56.2 ± 7.3 µM | 0.8 | 45.4 ± 4.8 µM |  |  |  | 
8 |  | COc1ccc(OC)c(C(=O)[C@H]2C(C)=CCC3C(C)(C)CCC[C@@]32C)c1 (stereo partly drawn) [Compound 12b, (2,5-Dimethoxyphenyl)((1S,8aS)-2,5,5,8a-tetramethyl-1,4,4a,5,6,7,8,8a-octahydronaphthalen-1-yl)methanone] | 88.1 ± 19.9 µM | 0.8 | 72.7 ± 4.3 µM |  |  |  | 
9 |  | COc1cc(OC)cc(C(=O)[C@H]2C(C)=CCC3C(C)(C)CCC[C@@]32C)c1 (stereo partly drawn) [Compound 12d, (3,5-Dimethoxyphenyl)((1S,8aS)-2,5,5,8a-tetramethyl-1,4,4a,5,6,7,8,8a-octahydronaphthalen-1-yl)methanone] | 112 ± 25.4 µM | 1.0 | 107 ± 15.4 µM |  |  |  | 
10 |  | COc1ccc(/C=C2\C(C)=CCC3C(C)(C)CCC[C@]23C)c(OC)c1 (stereo partly drawn) [Compound 13a, (4aS)-5-((E)-2,4-Dimethoxybenzylidene)-1,1,4a,6-tetramethyl-1,2,3,4,4a,5,8,8a-octahydronaphthalene] | 48.9 ± 8 µM | 1.4 | 70.9 ± 15.1 µM |  |  |  | 
11 |  | COc1cc(OC)c2c(c1)[C@]1(C)CCC3C(C)(C)CCC[C@]3(C)C1=C2 (stereo partly drawn) [Compound 14a, (6aR,11bS)-8,10-Dimethoxy-4,4,6a,11b-tetramethyl-2,3,4,4a,5,6,6a,11b-octahydro-1H-benzo[a]fluorene] | 8.4 ± 1.8 µM | 6.3 | 52.4 ± 3.5 µM |  |  |  | 
12 |  | COc1cc2c(c(OC)c1)[C@]1(C)CCC3C(C)(C)CCC[C@]3(C)C1=C2 (stereo partly drawn) [Compound 14d, (6aR,11bS)-7,9-Dimethoxy-4,4,6a,11b-tetramethyl-2,3,4,4a,5,6,6a,11b-octahydro-1H-benzo[a]fluorene] | 120 ± 29.8 µM | 0.3 | 31.4 ± 4.6 µM |  |  |  | 
13 |  | (4aS,5S)-5-(3,5-Dimethoxybenzyl)-1,1,4a,6-tetramethyl-1,2,3,4,4a,5,8,8a-octahydronaphthalene [Compound 11d] |  |  |  |  |  | 187 ± 9 µM | 165 ± 12.5 µM
